Laboratory results as given in US20100010053A1, “COMPOUNDS” (priority 2008, published 2010).

molecular target: T1, human S1P1 receptor (EDG1) (Homo sapiens, UniProt P21453); assay: S1P1 GTPγS assay or S1P1 Tango assay (at least one of the above assays); type: cell-based; settings: read-out: pEC50 in at least one of the above assays (converted)
T1 construct: TEV protease site + Gal4-VP16 transcription factor (only in the Tango assay cells; not described for the GTPγS membranes); expressed in transfected cells; host or cells: rat hepatoma cells (membranes, GTPγS assay) or Tango EDG1-bla U2OS cells (Tango assay)
Experimental: For membrane preparations all steps were performed at 4° C. Rat hepatoma cells stably expressing the human S1P1 receptor or Rat Basophilic Leukaemia cells (RBL) stably expressing human S1P3 receptor were grown to 80% confluency before being harvested into 10 ml Phospho-Buffered Saline (PBS) and centrifuged at 1200 rpm for 5 minutes. After removal of the supernatant, the pellet was re-suspended and cells were homogenised within a glass Waring blender for 2 bursts of 15 secs in 200 mls of buffer (50 mM HEPES, 1 mM leupeptin, 25 μg/ml bacitracin, 1 mM EDTA, 1 mM PMSF, 2 μM pepstatin A). The blender was plunged into ice for 5 mins after the first burst and 10-40 mins after the final burst to allow foam to dissipate. The material was then spun at 500 g for 20 mins and the supernatant spun for 36 mins at 48,000 g. The pellet was resuspended in the same buffer as above but without PMSF and pepstatin A. The material was then forced through a 0.6 mm needle, made up to the required volume, (usually ×4 the volume of the original cell pellet), aliquoted and stored frozen at −80° C. S1P1 GTPγS assay Human S1P1 rat hepatoma membranes (1.5 μg/well) were adhered to a wheatgerm agglutinin (WGA)-coated scintillation proximity assay (SPA) beads (0.125 mg/well) in assay buffer (HEPES 20 mM, MgCl2 10 mM, NaCl 100 mM and pH adjusted to 7.4 using KOH 5M, GDP 10 μM FAC (final assay concentration) and saponin 90 μg/ml FAC was also added).
After 30 minutes pre-coupling on ice the bead and membrane suspension was dispensed into a white Greiner polypropylene LV384-well plate (5 μl/well), containing 0.1 μl of the compound. 5 μl/well [^35S]-GTPγS (0.5 nM final radioligand conc) made up in assay buffer was then added to agonist plates. The final assay cocktail (10.1 μl) was then centrifuged at 1000 rpm for 5 minutes then read immediately on a Viewlux reader.
All test compounds were dissolved in DMSO at a concentration of 10 mM and were prepared in 100% DMSO using a 1 in 4 dilution step to provide 11 point dose response curves. The dilutions were transferred to the assay plates ensuring that the DMSO concentration was constant across the plate for all assays.
All data was normalized to the mean of 16 high and 16 low control wells on each plate. A four parameter curve fit was then applied.
Recombinant EDG1-bla/U2OS cells (contain the human Endothelial Differentiation Gene 1 (EDG1) linked to a TEV protease site and a Gal4-VP16 transcription factor stably integrated into the Tango GPCR-bla U2OS parental cell line) were suspended in assay medium (Invitrogen Freestyle Expression Medium) at a density of 312, 500 cells/ml. Add 100 μl/well of the assay medium to the cell-free control wells (column 12) and 100 μl/well of the cell suspension to the test compound wells (row 2-8, column 1-10), the unstimulated control wells (DMSO) (column 11), and stimulated control wells (S1P) (row 1, column 1-10) in a Corning black-well, clear bottom 96-well plate. Cells were incubated at 37° C., 5% CO2 for 44-48 h. Add 25 μl of 5× stock solution of test compounds in assay medium with 0.5% DMSO to the test compound wells, 25 μl of 5× stock solution of agonist (S1P) in assay medium with 0.5% DMSO to the stimulated compound wells, and 25 μl of 5× stock solution of 0.5% DMSO in assay medium to the unstimulated control and cell-free control wells.
After incubation at 37° C., 5% CO2 for 5 h, 25 μl of 6× substrate mixture (6 μl Solution A (1 mg LiveBLAzer™-FRET B/G substrate (CCF4-AM) in 912 μl DMSO) plus 60 μl Solution B plus 934 μl Solution C) was added to each well and incubate at room temperature for 2 h in dark. The plate was finally read on EnVision for two emission channels (460 nm and 530 nm).
All test compounds were dissolved in DMSO at a concentration of 10 mM and were prepared in 100% DMSO using a 1 in 5 dilution step to provide 10 point dose response curves. […]

T1 sequence (P21453 whole entry, the tested form may be a part): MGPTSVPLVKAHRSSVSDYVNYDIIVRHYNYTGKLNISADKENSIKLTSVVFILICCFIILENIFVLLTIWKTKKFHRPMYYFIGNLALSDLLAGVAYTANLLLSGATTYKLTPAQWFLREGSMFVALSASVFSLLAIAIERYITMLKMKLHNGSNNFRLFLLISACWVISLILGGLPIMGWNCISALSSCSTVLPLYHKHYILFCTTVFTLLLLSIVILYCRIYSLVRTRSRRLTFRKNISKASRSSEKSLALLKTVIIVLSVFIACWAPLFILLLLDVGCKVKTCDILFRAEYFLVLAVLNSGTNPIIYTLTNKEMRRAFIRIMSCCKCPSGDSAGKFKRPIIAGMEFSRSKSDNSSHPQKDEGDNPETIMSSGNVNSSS

| Structure (SMILES) | EC50 |
| --- | --- |
| CC(C)Oc1ccc(-c2nc(-c3cccc4c(C[C@@H](C)C(=O)O)cn(C)c34)no2)cc1Cl [Example 36, (2R)-3-[7-(5-{3-chloro-4-[(1-methylethyl)oxy]phenyl}-1,2,4-oxadiazol-3-yl)-1-methyl-1H-indol-3-yl]-2-methylpropanoic acid] | < 10 nM |
| CC(C)Oc1ccc(-c2nc(-c3cccc4c(CN5CCC(C(=O)O)CC5)c[nH]c34)no2)cc1Cl [Example 48, 1-{[7-(5-{3-chloro-4-[(1-methylethyl)oxy]phenyl}-1,2,4-oxadiazol-3-yl)-1H-indol-3-yl]methyl}-4-piperidinecarboxylic acid] | < 10 nM |
| CC(C)Oc1ccc(-c2nc(-c3ccc(F)c4c(CCC(=O)O)c[nH]c34)no2)cc1Cl [Example 19, 3-[7-(5-{3-Chloro-4-[(1-methylethyl)oxy]phenyl}-1,2,4-oxadiazol-3-yl)-4-fluoro-1H-indol-3-yl]propanoic acid] | < 10 nM |
| CCCCn1cc(CCC(=O)O)c2cccc(-c3noc(-c4ccc(OC(C)C)c(Cl)c4)n3)c21 [Example 29, 3-[1-butyl-7-(5-{3-chloro-4-[(1-methylethyl)oxy]phenyl}-1,2,4-oxadiazol-3-yl)-1H-indol-3-yl]propanoic acid] | ≥ 1000 nM |
| CC(C)Oc1ccc(-c2nc(-c3cc4[nH]cc(CCC(=O)O)c4cc3F)no2)cc1Cl [Example 109, 3-[6-(5-{3-Chloro-4-[(1-methylethyl)oxy]phenyl}-1,2,4-oxadiazol-3-yl)-5-fluoro-1H-indol-3-yl]propanoic acid] | < 1 nM |
| CC(C)Oc1ccc(-c2nc(-c3cc4[nH]cc(CCC(=O)O)c4cc3F)no2)cc1C#N [Example 110, 3-[6-(5-{3-Cyano-4-[(1-methylethyl)oxy]phenyl}-1,2,4-oxadiazol-3-yl)-5-fluoro-1H-indol-3-yl]propanoic acid] | < 1 nM |
| CC(C)Oc1ccc(-c2nc(-c3c(F)ccc4c(CCC(=O)O)cn(C)c34)no2)cc1Cl [Example 104, 3-[7-(5-{3-Chloro-4-[(1-methylethyl)oxy]phenyl}-1,2,4-oxadiazol-3-yl)-6-fluoro-1-methyl-1H-indol-3-yl]propanoic acid] | < 10 nM |
| CC(C)Oc1ccc(-c2nc(-c3cccc4c(C(=O)N(C)CCC(=O)O)c[nH]c34)no2)cc1Cl [Example 75, N-{[7-(5-{3-chloro-4-[(1-methylethyl)oxy]phenyl}-1,2,4-oxadiazol-3-yl)-1H-indol-3-yl]carbonyl}-N-methyl-β-alanine] | < 10 nM |
| CC(C)Oc1ccc(-c2nc(-c3cccc4c(CCC(=O)O)c[nH]c34)no2)cc1C#N [Example 3, 3-[7-(5-{3-Cyano-4-[(1-methylethyl)oxy]phenyl}-1,2,4-oxadiazol-3-yl)-1H-indol-3-yl]propanoic acid] | < 1 nM |
| CC(C)Oc1ccc(-c2nc(-c3cccc4c(C(=O)NCCC(=O)O)cn(C)c34)no2)cc1Cl [Example 76, N-{[7-(5-{3-chloro-4-[(1-methylethyl)oxy]phenyl}-1,2,4-oxadiazol-3-yl)-1-methyl-1H-indol-3-yl]carbonyl}-β-alanine] | < 1 nM |
| CC(C)Oc1ccc(-c2nc(-c3c(F)ccc4c(CCC(=O)O)cn(C)c34)no2)cc1C#N [Example 106, 3-[7-(5-{3-Cyano-4-[(1-methylethyl)oxy]phenyl}-1,2,4-oxadiazol-3-yl)-6-fluoro-1-methyl-1H-indol-3-yl]propanoic acid] | < 10 nM |
| CC(C)Oc1ncc(-c2nc(-c3cc(F)cc4c(CCC(=O)O)c[nH]c34)no2)cc1Cl [Example 101, 3-[7-(5-{5-Chloro-6-[(1-methylethyl)oxy]-3-pyridinyl}-1,2,4-oxadiazol-3-yl)-5-fluoro-1H-indol-3-yl]propanoic acid] | < 10 nM |

The remaining lines, values ahead:

| EC50 | Structure (SMILES) |
| --- | --- |
| < 1 nM | CC(C)Oc1ccc(-c2nc(-c3ccc4c(CCC(=O)O)c[nH]c4c3)no2)cc1C#N [Example 7, 3-[6-(5-{3-Cyano-4-[(1-methylethyl)oxy]phenyl}-1,2,4-oxadiazol-3-yl)-1H-indol-3-yl]propanoic acid] |
| < 10 nM | CC(C)Oc1ccc(-c2nc(-c3cccc4c(CNCCC(=O)O)c[nH]c34)no2)cc1Cl [Example 46, N-{[7-(5-{3-chloro-4-[(1-methylethyl)oxy]phenyl}-1,2,4-oxadiazol-3-yl)-1H-indol-3-yl]methyl}-β-alanine] |
| ≥ 1000 nM | COc1ccc(-c2nc(-c3cccc4c(CCC(=O)O)cn(C)c34)no2)cc1OC [Example 44, 3-(7-{5-[3,4-bis(methyloxy)phenyl]-1,2,4-oxadiazol-3-yl}-1-methyl-1H-indol-3-yl)propanoic acid] |
| ≥ 1000 nM | CC(C)Oc1ccc(-c2nc(-c3ccc4[nH]c(C(=O)O)cc4c3)no2)cc1Cl [Example 8, Sodium 5-(5-{3-chloro-4-[(1-methylethyl)oxy]phenyl}-1,2,4-oxadiazol-3-yl)-1H-indole-2-carboxylate] |
| < 1 nM | CC(C)Oc1ccc(-c2nc(-c3cccc4c(C(=O)NCCC(=O)O)c[nH]c34)no2)cc1Cl [Example 73, N-{[7-(5-{3-chloro-4-[(1-methylethyl)oxy]phenyl}-1,2,4-oxadiazol-3-yl)-1H-indol-3-yl]carbonyl}-β-alanine] |
| < 1 nM | CC(C)Oc1ccc(-c2nc(-c3cccc4c(CN[C@H](C)C(=O)O)c[nH]c34)no2)cc1Cl [Example 49, N-{[7-(5-{3-chloro-4-[(1-methylethyl)oxy]phenyl}-1,2,4-oxadiazol-3-yl)-1H-indol-3-yl]methyl}-D-alanine] |
| < 1 nM | CC(C)Oc1ccc(-c2nc(-c3cccc4c(CNCC(=O)O)c[nH]c34)no2)cc1Cl [Example 47, N-{[7-(5-{3-chloro-4-[(1-methylethyl)oxy]phenyl}-1,2,4-oxadiazol-3-yl)-1H-indol-3-yl]methyl}glycine] |
| < 1 nM | CC(C)Oc1ccc(-c2nc(-c3cccc4c(CNCCC(=O)O)cn(C)c34)no2)cc1Cl [Example 58, N-{[7-(5-{3-chloro-4-[(1-methylethyl)oxy]phenyl}-1,2,4-oxadiazol-3-yl)-1-methyl-1H-indol-3-yl]methyl}-β-alanine] |
| < 10 nM | CC(C)Oc1ccc(-c2nc(-c3cccc4c(CCCOCC(=O)O)cn(C)c34)no2)cc1Cl [Example 80, ({3-[7-(5-{3-chloro-4-[(1-methylethyl)oxy]phenyl}-1,2,4-oxadiazol-3-yl)-1-methyl-1H-indol-3-yl]propyl}oxy)acetic acid] |
| < 10 nM | CC(C)Oc1ncc(-c2nc(-c3cc4[nH]cc(CCC(=O)O)c4cc3F)no2)cc1Cl [Example 111, 3-[6-(5-{5-Chloro-6-[(1-methylethyl)oxy]-3-pyridinyl}-1,2,4-oxadiazol-3-yl)-5-fluoro-1H-indol-3-yl]propanoic acid] |
| < 10 nM | CC(C)Oc1ccc(-c2nc(-c3cccc4c(CCNC5(C(=O)O)CC5)cn(C)c34)no2)cc1Cl [Example 68, 1-({2-[7-(5-{3-chloro-4-[(1-methylethyl)oxy]phenyl}-1,2,4-oxadiazol-3-yl)-1-methyl-1H-indol-3-yl]ethyl}amino)cyclopropanecarboxylic acid] |
| < 10 nM | CC(C)Oc1ccc(-c2nc(-c3ccc4[nH]c(CCC(=O)O)cc4c3)no2)cc1C#N [Example 89, 3-[5-(5-{3-cyano-4-[(1-methylethyl)oxy]phenyl}-1,2,4-oxadiazol-3-yl)-1H-indol-2-yl]propanoic acid] |
